The record followed here is patent US20250215029A1 (Recludix Pharma, Inc., priority 2022, published 2025).

Each structure is given as a SMILES string.

The target of the test is T1, pY705-STAT3 in PBMC (Homo sapiens, UniProt P40763).
T1 construct: Cryopreserved Peripheral Blood Mononuclear Cells (PBMC) are from AllCells; host or cells: cryopreserved PBMC
T1 sequence (P40763 whole entry): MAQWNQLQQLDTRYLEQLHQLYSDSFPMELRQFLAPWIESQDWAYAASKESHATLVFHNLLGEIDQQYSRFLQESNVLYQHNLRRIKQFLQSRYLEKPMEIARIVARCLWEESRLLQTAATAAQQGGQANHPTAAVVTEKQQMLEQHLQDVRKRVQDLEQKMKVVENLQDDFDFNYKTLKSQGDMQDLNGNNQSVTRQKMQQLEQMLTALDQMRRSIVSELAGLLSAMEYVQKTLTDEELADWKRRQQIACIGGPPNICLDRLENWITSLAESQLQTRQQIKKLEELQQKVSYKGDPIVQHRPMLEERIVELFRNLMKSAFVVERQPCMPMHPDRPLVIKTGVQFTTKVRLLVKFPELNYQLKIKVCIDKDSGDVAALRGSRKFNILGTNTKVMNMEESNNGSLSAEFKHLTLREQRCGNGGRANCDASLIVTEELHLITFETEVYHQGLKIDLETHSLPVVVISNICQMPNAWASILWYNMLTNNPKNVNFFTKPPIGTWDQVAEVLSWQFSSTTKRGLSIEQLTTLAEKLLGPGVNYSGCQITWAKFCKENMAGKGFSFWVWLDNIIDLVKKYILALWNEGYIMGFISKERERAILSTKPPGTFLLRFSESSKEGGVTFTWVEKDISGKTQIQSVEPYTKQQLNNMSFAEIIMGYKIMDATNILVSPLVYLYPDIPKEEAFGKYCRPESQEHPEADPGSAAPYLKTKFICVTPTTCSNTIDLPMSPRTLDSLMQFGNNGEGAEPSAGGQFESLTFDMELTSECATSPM
The test can be described thus: MSD-pSTAT-PBMC Assay (pSTAT3, IL-6 stimulated). The class given is cell-based. Particulars: PBMC, compound 3 hrs, then 10 ng/mL IL-6 for 10 min; Table 115; read-out: STAT3. From the text: Cryopreserved Peripheral Blood Mononuclear Cells (PBMC) are from AllCells. Recombinant Human IL-4 and IL-6 are from Peprotech. Mouse monoclonal anti-STAT3 antibody, rabbit monoclonal anti-pY705-STAT3 antibody, rabbit monoclonal Anti-pY641-STAT6 antibody, and lysis buffer are from Cell Signaling Technology (CST). Mouse monoclonal anti-STAT6 antibody is from BioLegend. Assay plates, blocker, and anti-rabbit secondary antibody are from Meso Scale Discovery (MSD).
Cyropreserved PBMCs were thawed out and allowed to recover overnight in IMDM+10% heat-inactivated FBS prior to plating 50,000 (STAT3) or 25,000 (STAT6) cells per well in 96-well U-bottom tissue culture plates. Cells were treated with compound for 3 hrs, then stimulated with 10 ng/mL IL-6 (STAT3) or 1 ng/mL IL-4 (STAT6) for 10 min. Cells were then spun down and washed with ice-cold PBS prior to lysing the cell pellet with 1× lysis buffer (CST) with 1× HALT protease and phosphatase inhibitor cocktail (Thermo). Lysates were transferred to and incubated overnight at 4° C. with shaking in QuickPlex 96-well high bind assay plates (MSD) pre-coated overnight with 30 μL per well of 0.6 μg/mL mouse monoclonal anti-STAT3 antibody (STAT3) or 2 μg/mL mouse monoclonal anti-STAT6 antibody (STAT6) in 1× PBS, and pre-blocked for 1 hour with 3% Blocker-A (MSD). Captured protein in the assay plates were then washed and probed with 25 μL per well of […] rabbit monoclonal anti-pY705-STAT3 antibody (STAT3) or 0.18 μg/ml rabbit monoclonal Anti-pY641-STAT6 antibody (STAT6) in 1% Blocker-A for 1 hour at room temperature with shaking, then washed and probed with 25 ul per well of 1 ug/ml Sulfo-TAG Labeled Goat Anti-Rabbit Antibody (MSD) in 1% Blocker-A for 1 hour at room temperature with shaking. Assay plates were then washed and 150 μL of 1× Read Buffer-T (MSD) was added to each well prior to reading on an SQ120 MSD Plate Reader. Assay signal from each sample was subtracted by the signal from unstimulated control wells and normalized to DMSO control wells. IC50 values were calculated using Graph Pad Prism Dose-Response Nonlinear Regression with variable slope. For both pSTAT3 and pSTAT6 A=≤100 nM; B 100-1000 nM; C=>1000-3000 nM; D=>3 μM; and NT=Not Tested.
`CCCOC(=O)[C@H](C)NP(=O)(Oc1ccccc1)C(F)c1ccc2sc(C(=O)N[C@H]3CCCC[C@H]4CC[C@@H](C(=O)NCc5cnc6[nH]cnc6c5)N4C3=O)cc2c1` (stereo partly drawn) [Compound 265, propyl (((2-(((3S,6S,10aS)-3-(((3H-imidazo[4,5-b]pyridin-6-yl)methyl)carbamoyl)-5-oxodecahydropyrrolo [1,2-a]azocin-6-yl)carbamoyl)benzo [b]thiophen-5-yl)fluoromethyl) (phenoxy)phosphoryl)-L-alaninate]: the IC50 was in the range of 0.1 to 1 µM. Take `CCCOC(=O)[C@H](C)NP(=O)(Oc1ccccc1)C(F)c1ccc2sc(C(=O)N[C@H]3CCC[C@H]4CC[C@@H](C(=O)N5CC(c6cccc(C#N)n6)C5)N4C3=O)cc2c1` (stereo partly drawn) [Compound 266, propyl (((2-(((3S,6S,9aS)-3-(3-(6-cyanopyridin-2-yl)azetidine-1-carbonyl)-5-oxooctahydro-1H-pyrrolo[1,2-a]azepin-6-yl)carbamoyl)benzo [b]thiophen-5-yl)fluoromethyl) (phenoxy)phosphoryl)-L-alaninate]: the IC50 is under 0.1 µM. Under `CCCOC(=O)[C@H](C)NP(=O)(Cc1ccc2sc(C(=O)N[C@H]3CCC[C@H]4CC[C@@H](C(=O)N5CC(c6cnccc6C6CC6)C5)N4C3=O)cc2c1)Oc1ccccc1` (stereo partly drawn) [Compound 267, propyl (((2-(((3S,6S,9aS)-3-(3-(4-cyclopropylpyridin-3-yl)azetidine-1-carbonyl)-5-oxooctahydro-1H-pyrrolo[1,2-a]azepin-6-yl)carbamoyl)benzo [b]thiophen-5-yl)methyl)(phenoxy)phosphoryl)-L-alaninate] stands under 0.1 µM.

For `CCCOC(=O)[C@H](C)NP(=O)(Cc1ccc2sc(C(=O)N[C@H]3CCC[C@H]4CC[C@@H](C(=O)N5CC(c6cnccc6Cl)C5)N4C3=O)cc2c1)Oc1ccccc1` (stereo partly drawn) [Compound 268, propyl (((2-(((3S,6S,9aS)-3-(3-(4-chloropyridin-3-yl)azetidine-1-carbonyl)-5-oxooctahydro-1H-pyrrolo[1,2-a]azepin-6-yl)carbamoyl)benzo [b]thiophen-5-yl)methyl)(phenoxy)phosphoryl)-L-alaninate], the IC50 was in the range of 0.1 to 1 µM. The figure for `CCCOC(=O)[C@H](C)NP(=O)(Cc1ccc2sc(C(=O)N[C@H]3CCC[C@H]4CC[C@@H](C(=O)N5CC(c6cnc(OC)cc6F)C5)N4C3=O)cc2c1)Oc1ccccc1` (stereo partly drawn) [Compound 271, propyl (((2-(((3S,6S,9aS)-3-(3-(4-fluoro-6-methoxypyridin-3-yl)azetidine-1-carbonyl)-5-oxooctahydro-1H-pyrrolo[1,2-a]azepin-6-yl)carbamoyl)benzo [b]thiophen-5-yl)methyl)(phenoxy)phosphoryl)-L-alaninate] is 0.1 to 1 µM; for `CCCOC(=O)[C@H](C)NP(=O)(Cc1ccc2sc(C(=O)N[C@H]3CCC[C@H]4CC[C@@H](C(=O)N5CC(c6cccnc6C(F)F)C5)N4C3=O)cc2c1)Oc1ccccc1` (stereo partly drawn) [Compound 272, propyl (((2-(((3S,6S,9aS)-3-(3-(2-(difluoromethyl)pyridin-3-yl)azetidine-1-carbonyl)-5-oxooctahydro-1H-pyrrolo[1,2-a]azepin-6-yl)carbamoyl)benzo [b]thiophen-5-yl)methyl)(phenoxy)phosphoryl)-L-alaninate] it is under 0.1 µM; for `CCCOC(=O)[C@H](C)NP(=O)(Oc1ccccc1)C(F)c1ccc2sc(C(=O)N[C@H]3CCC[C@H]4CC[C@@H](C(=O)N5CC(c6cnccc6C#N)C5)N4C3=O)cc2c1` (stereo partly drawn) [Compound 273, propyl (((2-(((3S,6S,9aS)-3-(3-(4-cyanopyridin-3-yl)azetidine-1-carbonyl)-5-oxooctahydro-1H-pyrrolo[1,2-a]azepin-6-yl)carbamoyl)benzo [b]thiophen-5-yl)fluoromethyl) (phenoxy)phosphoryl)-L-alaninate] it is 0.1 to 1 µM. The figure for `CCCOC(=O)[C@H](C)NP(=O)(Cc1ccc2sc(C(=O)N[C@H]3CCCC[C@H]4CC[C@@H](C(=O)N5CC(c6cnccc6F)C5)N4C3=O)cc2c1)Oc1ccccc1` (stereo partly drawn) [Compound 274, propyl (((2-(((3S,6S,10aS)-3-(3-(4-fluoropyridin-3-yl)azetidine-1-carbonyl)-5-oxodecahydropyrrolo [1,2-a]azocin-6-yl)carbamoyl)benzo [b]thiophen-5-yl)methyl)(phenoxy)phosphoryl)-L-alaninate] is under 0.1 µM; for `CCCOC(=O)[C@H](C)NP(=O)(Cc1ccc2sc(C(=O)N[C@H]3CCC[C@H]4CC[C@@H](C(=O)N5CC(c6c(F)ccnc6OC)C5)N4C3=O)cc2c1)Oc1ccccc1` (stereo partly drawn) [Compound 275, propyl (((2-(((3S,6S,9aS)-3-(3-(4-fluoro-2-methoxypyridin-3-yl)azetidine-1-carbonyl)-5-oxooctahydro-1H-pyrrolo[1,2-a]azepin-6-yl)carbamoyl)benzo [b]thiophen-5-yl)methyl)(phenoxy)phosphoryl)-L-alaninate] it is over 3 µM. Under `CC[C@H](C)OC(=O)[C@H](C)NP(=O)(Cc1ccc2sc(C(=O)N[C@H]3CCC[C@H]4CC[C@@H](C(=O)N5CC(c6cccnc6)C5)N4C3=O)cc2c1)Oc1ccccc1` (stereo partly drawn) [Compound 276, (S)-sec-butyl (((2-(((3S,6S,9aS)-5-oxo-3-(3-(pyridin-3-yl)azetidine-1-carbonyl)octahydro-1H-pyrrolo[1,2-a]azepin-6-yl)carbamoyl)benzo [b]thiophen-5-yl)methyl)(phenoxy)phosphoryl)-L-alaninate] stands 0.1 to 1 µM; under `CC(C)COC(=O)[C@H](C)NP(=O)(Oc1ccccc1)C(F)c1ccc2sc(C(=O)N[C@H]3CCC[C@H]4CC[C@@H](C(=O)N5CC(c6cnccc6F)C5)N4C3=O)cc2c1` (stereo partly drawn) [Compound 277, isobutyl ((fluoro(2-(((3S,6S,9aS)-3-(3-(4-fluoropyridin-3-yl)azetidine-1-carbonyl)-5-oxooctahydro-1H-pyrrolo[1,2-a]azepin-6-yl)carbamoyl)benzo [b]thiophen-5-yl)methyl)(phenoxy)phosphoryl)-L-alaninate], under 0.1 µM. Regarding `CCCOC(=O)[C@H](C)NP(=O)(Cc1ccc2sc(C(=O)N[C@H]3CCC[C@H]4CC[C@@H](C(=O)N5CC(c6cnc(F)cc6OC)C5)N4C3=O)cc2c1)Oc1ccccc1` (stereo partly drawn) [Compound 278, propyl (((2-(((3S,6S,9aS)-3-(3-(6-fluoro-4-methoxypyridin-3-yl)azetidine-1-carbonyl)-5-oxooctahydro-1H-pyrrolo[1,2-a]azepin-6-yl)carbamoyl)benzo [b]thiophen-5-yl)methyl)(phenoxy)phosphoryl)-L-alaninate], the IC50 was in the range of 0.1 to 1 µM. Under `CCCCOC(=O)[C@H](C)NP(=O)(Cc1ccc2sc(C(=O)N[C@H]3CCC[C@H]4CC[C@@H](C(=O)N5CC(c6cccnc6)C5)N4C3=O)cc2c1)Oc1ccccc1` (stereo partly drawn) [Compound 279, butyl (((2-(((3S,6S,9aS)-5-oxo-3-(3-(pyridin-3-yl)azetidine-1-carbonyl)octahydro-1H-pyrrolo[1,2-a]azepin-6-yl)carbamoyl)benzo [b]thiophen-5-yl)methyl)(phenoxy)phosphoryl)-L-alaninate] stands under 0.1 µM; under `COC1(c2cccnc2)CN(C(=O)[C@@H]2CC[C@@H]3CCCC[C@H](NC(=O)c4cc5cc(CP(=O)(N[C@@H](C)C(=O)OCC(C)C)Oc6ccccc6)ccc5s4)C(=O)N32)C1` (stereo partly drawn) [Compound 281, isobutyl (((2-(((3S,6S,10aS)-3-(3-methoxy-3-(pyridin-3-yl)azetidine-1-carbonyl)-5-oxodecahydropyrrolo [1,2-a]azocin-6-yl)carbamoyl)benzo [b]thiophen-5-yl)methyl)(phenoxy)phosphoryl)-L-alaninate], under 0.1 µM; under `Cc1ccncc1C1CN(C(=O)[C@@H]2CC[C@@H]3CCCC[C@H](NC(=O)c4cc5cc(CP(=O)(N[C@@H](C)C(=O)OCC(C)C)Oc6ccccc6)ccc5s4)C(=O)N32)C1` (stereo partly drawn) [Compound 282, isobutyl (((2-(((3S,6S,10aS)-3-(3-(4-methylpyridin-3-yl)azetidine-1-carbonyl)-5-oxodecahydropyrrolo [1,2-a]azocin-6-yl)carbamoyl)benzo [b]thiophen-5-yl)methyl)(phenoxy)phosphoryl)-L-alaninate], under 0.1 µM.
